Legend:
CYP2R1 [1] = test: Gene expression; details: for CYP2R1 mRNA expression compared to normal serum + VEH: normal serum 24 h; for CYP2R1 mRNA expression relative to VEH + normal serum: uraemic serum 24 h
CYP24A1 [2] = details: HepG2 cells; 4 nM dose; ref Horvath et al 2012; cited from earlier work
hPTECs = test: Viability assay; type: cell-based, human
ABCB1 = test: Gene expression; type: cell-based, human
OATP4C1 = test: Protein expression; type: cell-based, human; details: for Effect on OATP4C1 protein expression: normal serum
P-gp = test: Protein expression; type: cell-based, human; details: 240 nM for six days
P-gp and MRP4 = details: Caco-2 cells; 3 day treatment, 100 nM; ref Maeng et al 2012; cited from earlier work
CYP2R1 [3] = test: Protein expression; type: cell-based, human
CYP24A1 [4] = test: Gene expression
SLCO4C1 = test: Gene expression; type: cell-based, human; details: uraemic serum 24 h, then 240 nM for six days
in vitro = details: human
[5] = normal serum 24 h, then 100 nM for six days
[6] = normal serum 24 h, then 240 nM for six days
[7] = uraemic serum 24 h, then 100 nM for six days

C=C1/C(=C\C=C2/CCC[C@]3(C)[C@@H]([C@H](C)CCCC(C)(C)O)CC[C@@H]23)C[C@@H](O)C[C@@H]1O [1,25-VitD3, calcitriol]
CYP2R1 mRNA expression compared to normal serum + VEH (CYP2R1 [1]; then 240 nM for six days): 4.7 fold | CYP2R1 mRNA expression relative to VEH + normal serum (CYP2R1 [1]; then 100 nM for six days): 4.8 fold | CYP2R1 mRNA expression relative to VEH + normal serum (CYP2R1 [1]; then 240 nM for six days): 4.0 fold | CYP24A1 expression increase (CYP24A1 [2]): 5,300 fold | Effect on increasing cell viability relative to VEH (hPTECs; uraemic serum 24 h pre-treatment, then 100 nM and 240 nM for six days): no significant effects | ABCB1 mRNA expression compared to normal serum + VEH (ABCB1; [5]): 8.8 fold | ABCB1 mRNA expression compared to normal serum + VEH (ABCB1; [6]): 7.6 fold | ABCB1 mRNA expression compared to normal serum + VEH (ABCB1; [7]): 10 fold | Decrease in OATP4C1 protein expression relative to normal serum + VEH (OATP4C1; 240 nM for six days): 54% | Effect on OATP4C1 protein expression (OATP4C1; 100 nM for six days): no effect | Effect on efflux ratio of [3H]digoxin (hPTEC monolayer; 240 nM for six days, normal or uraemic serum): did not have a significant effect | Increase in P-gp protein expression with uraemic serum compared to the same treatment with normal serum (P-gp): 1.44 fold | Effect on P-gp and MRP4 transport activity (basolateral to apical transport of adefovir dipivoxil) (P-gp and MRP4): Increased P-gp and MRP4 transport activity | Decrease in CYP2R1 protein expression under uraemic conditions compared to the same treatment with normal serum (CYP2R1 [3]; 100 nM for six days): 38% | Decrease in CYP2R1 protein expression under uraemic conditions compared to the same treatment with normal serum (CYP2R1 [3]; 240 nM for six days): 64% | CYP24A1 mRNA expression compared to normal serum + VEH (CYP24A1 [4]; [5]): 8706 fold | CYP24A1 mRNA expression compared to normal serum + VEH (CYP24A1 [4]; [6]): 9483 fold | CYP24A1 mRNA expression compared to normal serum + VEH (CYP24A1 [4]; [7]): 4967 fold | CYP24A1 mRNA expression compared to normal serum + VEH (CYP24A1 [4]; uraemic serum 24 h, then 240 nM for six days): 5343 fold | SLCO4C1 mRNA expression compared to normal serum + VEH (SLCO4C1): 3.3 fold

C=C1CC[C@H](O)C/C1=C/C=C1\CCC[C@]2(C)[C@@H]([C@H](C)CCCC(C)C)CC[C@@H]12 [VitD3, cholecalciferol]
Increase in CYP2R1 mRNA expression under uraemic conditions compared to normal serum (same treatment) (CYP2R1 [1]; 100 nM for six days): 45% | CYP2R1 mRNA expression compared to normal serum + VEH (CYP2R1 [1]; then 240 nM for six days): 3.6 fold | CYP2R1 mRNA expression relative to VEH + normal serum (CYP2R1 [1]; then 100 nM for six days): 3.1 fold | Effect on cell viability (hPTECs; normal or uraemic serum, 100 or 240 nM for six days): no significant effects | Effect on ABCB1 mRNA expression (ABCB1; 100 or 240 nM for six days, normal or uraemic serum): no effect | Effect on OATP4C1 protein expression (OATP4C1; 240 nM for six days): no effect

C[C@H]1O[C@@H](O[C@H]2[C@@H](O)C[C@H](O[C@H]3[C@@H](O)C[C@H](O[C@H]4CC[C@@]5(C)[C@H](CC[C@@H]6[C@@H]5C[C@@H](O)[C@]5(C)[C@@H](C7=CC(=O)OC7)CC[C@]65O)C4)O[C@@H]3C)O[C@@H]2C)C[C@H](O)[C@@H]1O [[^3H]digoxin, digoxin]
Papp A→B at 33.5 μM (in vitro): 3.9 ± 0.14 ×10⁻⁶ cm/s | Papp A→B at 6 h, 33.5 μM (in vitro): 4.1 ± 0.27 ×10⁻⁶ cm/s | Digoxin transport in the B→A direction (hPTEC monolayer; one hour post digoxin dosing, normal serum + VEH): 29.9 ± 2.4%

Reference: publication PMC12088830 (Xenobiotica; the fate of foreign compounds in biological …, 2021)
